Reference: patent EP1285971B1, “Methods for the phenotypic and genotypic assessment of the drug sensitivity of HIV integrase variants” (Tibotec Pharmaceuticals Ltd., priority 2001, dated 2003)

Test system: pHXB2D control
Experiment: Antiviral experiment with control clone, transfected directly without recombination
Assay type: cell-based, HIV
Details: no recombination; for fold change: fold change in EC50
Description: Recombinant virus was produced by co-transfection by electroporation of the SmaI-linearized IN-deletion construct and the integrase amplicon into MT4 cells or MT4 cells equipped with an LTR driven reporter gene construct. Production of recombinant virus was evaluated by scoring the cytopathogenic effect (CPE) that is induced by HIV-infection of MT4 cells or by the LTR-driven reporter signal induced by HIV infection in MT4 reporter cells. Green fluorescent protein was used as the reporter signal. Viruses are harvested and titrated at maximum CPE. For recombination the deletion construct pSV40HXB2D-ΔIN was used. Recombination experiments were performed with amplicon from wildtype HIV IIIB and NL4.3, and patient sample 146514 generated by both primer sets. For each recombination 2 µg amplicon was co-transfected with 10 µg SmaI-digested pSV40HXB2D-ΔIN by electroporation into MT4-LTR-EGFP cells. Virus stocks were titrated and tested in an antiviral experiment on a reference panel including nucleoside reverse transcriptase inhibitors (NRTI), non- nucleoside reverse transcriptase inhibitors (NNRTI), protein inhibitor (PR), entry and integrase (IN) inhibitors (Table 2). Recombination was checked by nucleic acid sequence analysis using protocols known to the person skilled in the art. Sequencing primers which can be used are In_seq1F (SEQ ID NO 17), In_seq2F (SEQ ID NO 18), In_seq3F (SEQ ID NO 19), IN_seq1R (SEQ ID NO 20), IN_seq2R (SEQ ID NO 21), and IN_seq3R (SEQ ID NO 22). The recombinant virus was evaluated in an anti-viral assay with a panel of reference compounds including nucleoside RT inhibitors (NRTI) Zidovudine (AZT) Lamivudine (3TC), Didanosine (DDI), non-nucleoside RT inhibitors (NNRTI) Nevirapine (NVP), 4-[[6-amino-5-bromo-2-[(4-cyanophenyl)amino]-4-pyrimidinyl]oxy]-3,5-dimethyl-benzonitrile also referred to as compound 1, 4-[[6-amino-5-bromo-2-[(4-cyanophenyl)amino]-4-pyrimidinyl]oxy]-3,5-dimethyl-Benzonitrile, also referred to as compound 2 protease inhibitors (PR) Saquinavir (SQV), Amprenavir (APV), Indinavir (IDV), [[…]-3-[[(4-aminophenyl)sulfonyl](2-methylpropyl)amino]-2-hydroxy-1-(phenylmethyl)-propyl]-, (3R,3aS,6aR)-hexahydrofuro[2,3-b]furan-3-yl ester carbamic acid also referred to as compound 3, entry-inhibitors (Entry)(AMD3100, DS5000, ATA), and integrase inhibitor (IN) 2-(1-methylethyloxy)-α,γ dioxo-5-(phenylmethyl)-benzenebutanoic acid also referred to as compound 4. […] AVE means antiviral experiment. Type means the type of inhibitor investigated. The fold change is the fold change in EC50. WT III B means that a portion of the wild type IIIB strain has been amplified and used in the antiviral experiment, including transfection and generation of recombinant virus. NL 4-3 means the integrase gene of this laboratory strain has been amplified and subsequently used for the antiviral experiment. […] No recombination has been effected using this HIV clone. pHXB2D has been used directly for transfection and antiviral experiment. Primer set 3 consist of outer primers 5'EGINT3 (SEQ ID NO 4) and 3'EGINT10 (SEQ ID NO 11), and inner primers 5'EGINT4 (SEQ ID NO 5) and 3'EGINT6 (SEQ ID NO 7). Primer set 4 consist of outer primers 5'EGINT3 (SEQ ID NO 4) and 3'EGINT10 (SEQ ID NO 11), and inner primers 5'EGINT5 […] and 3'EGINT6 (SEQ ID NO 7). Other suitable integrase inhibitors include L-731,988, diketo-acids and S-1360.

[1] = Human immunodeficiency virus 1, AVE 6, pHXB2D control

Compound | fold change (AVE 6, pHXB2D control) | EC50 [1] [nM] | EC50 (AVE 6, pHXB2D control) [nM]
O=c1[nH]cnc2c1ncn2[C@H]1CC[C@@H](CO)O1 [DDI, Didanosine] | 1,0 | 4820 | 
CC(C)(C)NC(=O)[C@@H]1C[C@@H]2CCCC[C@@H]2CN1C[C@@H](O)[C@H](Cc1ccccc1)NC(=O)[C@H](CC(N)=O)NC(=O)c1ccc2ccccc2n1 [SQV, Saquinavir] | 1,0 | 19.8 | 
CC(C)CN(C[C@@H](O)[C@H](Cc1ccccc1)NC(=O)O[C@H]1CCOC1)S(=O)(=O)c1ccc(N)cc1 [APV, Amprenavir] | 1,0 | 83.8 | 
O=C(O)C1=CC(=C(c2ccc(O)c(C(=O)O)c2)c2ccc(O)c(C(=O)O)c2)C=CC1=O [ATA] | 1,0 |  | 2070
Cc1cc(C#N)cc(C)c1Oc1nc(Nc2ccc(C#N)cc2)nc(N)c1Br [Compound 2, 4-[[6-amino-5-bromo-2-[(4-cyanophenyl)amino]-4-pyrimidinyl]oxy]-3,5-dimethyl-Benzonitrile] | 1,0 |  | 3.1
CC(C)Oc1ccc(Cc2ccccc2)cc1C(=O)CC(=O)C(=O)O [Compound 4, 2-(1-methylethyloxy)-α,γ dioxo-5-(phenylmethyl)-benzenebutanoic acid] | 1,0 | 276 | 
Nc1ccn([C@@H]2CS[C@H](CO)O2)c(=O)n1 [Compound 3TC, Lamivudine] | 1,0 | 1380 | 
CC(C)c1nc(CN(C)C(=O)N[C@H](C(=O)N[C@@H](Cc2ccccc2)C[C@H](O)[C@H](Cc2ccccc2)NC(=O)OCc2cncs2)C(C)C)cs1 [RTV, ritonavir] | 1,0 | 148 | 
Cc1cc(C#N)cc(C)c1Oc1nc(Nc2ccc(C#N)cc2)nc(N)c1Br [Compound 1, 4-[[6-amino-5-bromo-2-[(4-cyanophenyl)amino]-4-pyrimidinyl]oxy]-3,5-dimethyl-benzonitrile] | 1,0 |  | 1
c1cc(CN2CCCNCCNCCCNCC2)ccc1CN1CCCNCCNCCCNCC1 [AMD3100] | 1,0 | 55.6 | 
Cc1ccnc2c1NC(=O)c1cccnc1N2C1CC1 [NVP, Nevirapine] | 1,0 | 86.3 | 
CC(C)(C)NC(=O)[C@@H]1CN(Cc2cccnc2)CCN1C[C@@H](O)C[C@@H](Cc1ccccc1)C(=O)N[C@H]1c2ccccc2C[C@H]1O [IDV, Indinavir] | 1,0 | 43.9 | 
Cc1cn([C@H]2C[C@H](N=[N+]=[N-])[C@@H](CO)O2)c(=O)[nH]c1=O [AZT, Zidovudine] | 1,0 | 168 | 
